Experiment: (§1) The drug is tested on WLS-039 corresponding to human gut metagenome with ENA study accession number: PRJEB37062 and ENA sample accession number: ERS12561746 for biotransformation under anaerobic condition. The drug concentrations were measured over 9 timepoints collected between 0 and 24 hours of incubation by liquid-chromatography-coupled mass spectrometry (LC–MS)
Conditions: 2 µM
Note: call rule not given here.

Compound | Bacterial Biotransformation
CCC(=O)NCC[C@@H]1CCc2ccc3c(c21)CCO3 [RAMELTEON] | Compound metabolized
COc1ccc2c3c1O[C@H]1C[C@@H](O)C=C[C@@]31CCN(C)C2 [GALANTAMINE] | Compound NOT metabolized

Experiment: as §1, with “WLS-010” for “WLS-039”, “ERS12561743” for “ERS12561746”
Conditions: 2 µM

Compound | Bacterial Biotransformation
CCC(=O)NCC[C@@H]1CCc2ccc3c(c21)CCO3 [RAMELTEON] | Compound metabolized
COc1ccc2c3c1O[C@H]1C[C@@H](O)C=C[C@@]31CCN(C)C2 [GALANTAMINE] | Compound metabolized

Experiment: as §1, with “WLS-027” for “WLS-039”, “ERS12561744” for “ERS12561746”
Conditions: 2 µM

Compound | Bacterial Biotransformation
CCC(=O)NCC[C@@H]1CCc2ccc3c(c21)CCO3 [RAMELTEON] | Compound metabolized
COc1ccc2c3c1O[C@H]1C[C@@H](O)C=C[C@@]31CCN(C)C2 [GALANTAMINE] | Compound NOT metabolized

Conditions: human gut metagenome, 24 h, 2 µM

Compound | Bacterial Biotransformation
CCC(=O)NCC[C@@H]1CCc2ccc3c(c21)CCO3 [RAMELTEON] | Compound metabolized
COc1ccc2c3c1O[C@H]1C[C@@H](O)C=C[C@@]31CCN(C)C2 [GALANTAMINE] | Compound NOT metabolized

Conditions: human gut metagenome, 24 h, 2 µM
Remark: another data set of the same source

Compound | Bacterial Biotransformation
CCC(=O)NCC[C@@H]1CCc2ccc3c(c21)CCO3 [RAMELTEON] | Compound metabolized
COc1ccc2c3c1O[C@H]1C[C@@H](O)C=C[C@@]31CCN(C)C2 [GALANTAMINE] | Compound NOT metabolized

Conditions: human gut metagenome, 24 h, 2 µM
Remark: another data set of the same source

Compound | Bacterial Biotransformation
CCC(=O)NCC[C@@H]1CCc2ccc3c(c21)CCO3 [RAMELTEON] | Compound metabolized
COc1ccc2c3c1O[C@H]1C[C@@H](O)C=C[C@@]31CCN(C)C2 [GALANTAMINE] | Compound metabolized

Conditions: human gut metagenome, 24 h, 2 µM
Remark: another data set of the same source

Compound | Bacterial Biotransformation
CCC(=O)NCC[C@@H]1CCc2ccc3c(c21)CCO3 [RAMELTEON] | Compound metabolized
COc1ccc2c3c1O[C@H]1C[C@@H](O)C=C[C@@]31CCN(C)C2 [GALANTAMINE] | Compound metabolized

Experiment: as §1, with “Z-022” for “WLS-039”, “mouse” for “human”, “ERS12561821” for “ERS12561746”
Conditions: 2 µM

Compound | Bacterial Biotransformation
CCC(=O)NCC[C@@H]1CCc2ccc3c(c21)CCO3 [RAMELTEON] | Compound metabolized
COc1ccc2c3c1O[C@H]1C[C@@H](O)C=C[C@@]31CCN(C)C2 [GALANTAMINE] | Compound NOT metabolized

Conditions: human gut metagenome, 24 h, 2 µM
Remark: another data set of the same source

Compound | Bacterial Biotransformation
CCC(=O)NCC[C@@H]1CCc2ccc3c(c21)CCO3 [RAMELTEON] | Compound metabolized
COc1ccc2c3c1O[C@H]1C[C@@H](O)C=C[C@@]31CCN(C)C2 [GALANTAMINE] | Compound NOT metabolized

Experiment: as §1, with “WLS-098” for “WLS-039”, “ERS12561754” for “ERS12561746”
Conditions: 2 µM

Compound | Bacterial Biotransformation
CCC(=O)NCC[C@@H]1CCc2ccc3c(c21)CCO3 [RAMELTEON] | Compound metabolized
COc1ccc2c3c1O[C@H]1C[C@@H](O)C=C[C@@]31CCN(C)C2 [GALANTAMINE] | Compound metabolized

Conditions: human gut metagenome, 24 h, 2 µM
Remark: another data set of the same source

Compound | Bacterial Biotransformation
CCC(=O)NCC[C@@H]1CCc2ccc3c(c21)CCO3 [RAMELTEON] | Compound metabolized
COc1ccc2c3c1O[C@H]1C[C@@H](O)C=C[C@@]31CCN(C)C2 [GALANTAMINE] | Compound metabolized

Experiment: as §1, with “WLS-052” for “WLS-039”, “ERS12561747” for “ERS12561746”
Conditions: 2 µM

Compound | Bacterial Biotransformation
CCC(=O)NCC[C@@H]1CCc2ccc3c(c21)CCO3 [RAMELTEON] | Compound metabolized
COc1ccc2c3c1O[C@H]1C[C@@H](O)C=C[C@@]31CCN(C)C2 [GALANTAMINE] | Compound NOT metabolized

Experiment: as §1, with “Z-006” for “WLS-039”, “mouse” for “human”, “ERS12561806” for “ERS12561746”
Conditions: 2 µM

Compound | Bacterial Biotransformation
CCC(=O)NCC[C@@H]1CCc2ccc3c(c21)CCO3 [RAMELTEON] | Compound metabolized
COc1ccc2c3c1O[C@H]1C[C@@H](O)C=C[C@@]31CCN(C)C2 [GALANTAMINE] | Compound NOT metabolized

Experiment: as §1, with “Z-023” for “WLS-039”, “to” for “to human gut”, “ERS12561822” for “ERS12561746”
Conditions: 2 µM

Compound | Bacterial Biotransformation
CCC(=O)NCC[C@@H]1CCc2ccc3c(c21)CCO3 [RAMELTEON] | Compound metabolized
COc1ccc2c3c1O[C@H]1C[C@@H](O)C=C[C@@]31CCN(C)C2 [GALANTAMINE] | Compound NOT metabolized

Conditions: human gut metagenome, 24 h, 2 µM
Remark: another data set of the same source

Compound | Bacterial Biotransformation
CCC(=O)NCC[C@@H]1CCc2ccc3c(c21)CCO3 [RAMELTEON] | Compound metabolized
COc1ccc2c3c1O[C@H]1C[C@@H](O)C=C[C@@]31CCN(C)C2 [GALANTAMINE] | Compound NOT metabolized

Experiment: as §1, with “Z-011” for “WLS-039”, “mouse” for “human”, “ERS12561811” for “ERS12561746”
Conditions: 2 µM

Compound | Bacterial Biotransformation
CCC(=O)NCC[C@@H]1CCc2ccc3c(c21)CCO3 [RAMELTEON] | Compound NOT metabolized
COc1ccc2c3c1O[C@H]1C[C@@H](O)C=C[C@@]31CCN(C)C2 [GALANTAMINE] | Compound NOT metabolized

Experiment: as §1, with “Z-025” for “WLS-039”, “rabbit” for “human”, “ERS12561824” for “ERS12561746”
Conditions: 2 µM

Compound | Bacterial Biotransformation
CCC(=O)NCC[C@@H]1CCc2ccc3c(c21)CCO3 [RAMELTEON] | Compound NOT metabolized
COc1ccc2c3c1O[C@H]1C[C@@H](O)C=C[C@@]31CCN(C)C2 [GALANTAMINE] | Compound NOT metabolized

Conditions: human gut metagenome, 24 h, 2 µM
Remark: another data set of the same source

Compound | Bacterial Biotransformation
CCC(=O)NCC[C@@H]1CCc2ccc3c(c21)CCO3 [RAMELTEON] | Compound NOT metabolized
COc1ccc2c3c1O[C@H]1C[C@@H](O)C=C[C@@]31CCN(C)C2 [GALANTAMINE] | Compound NOT metabolized

Experiment: as §1, with “Z-021” for “WLS-039”, “to” for “to human gut”, “ERS12561820” for “ERS12561746”
Conditions: 2 µM

Compound | Bacterial Biotransformation
CCC(=O)NCC[C@@H]1CCc2ccc3c(c21)CCO3 [RAMELTEON] | Compound metabolized
COc1ccc2c3c1O[C@H]1C[C@@H](O)C=C[C@@]31CCN(C)C2 [GALANTAMINE] | Compound NOT metabolized

Conditions: human gut metagenome, 24 h, 2 µM
Remark: another data set of the same source

Compound | Bacterial Biotransformation
CCC(=O)NCC[C@@H]1CCc2ccc3c(c21)CCO3 [RAMELTEON] | Compound metabolized
COc1ccc2c3c1O[C@H]1C[C@@H](O)C=C[C@@]31CCN(C)C2 [GALANTAMINE] | Compound NOT metabolized

Source: ChEMBL document CHEMBL5724914, “Linking interpersonal differences in gut microbiota composition and drug biotransformation activity” (2024)
